One may read the IC95 as the concentration needed for an effect of 95%. A low value points to greater potency.

Where only a bound is given, the exact number is not on record here.

The source of these data is patent US8293731B2, “HIV integrase inhibitors” (Merck Sharp + Dohme Corp., priority 2005, dated 2012).

This test deals with HIV. Put plainly: Assay for inhibition of HIV replication (spread assay): acute HIV infection of T-lymphoid cells. The settings on record: Human immunodeficiency virus 1, 'less than about'. The format is cell-based. How it is done:
Assays for the inhibition of acute HIV infection of T-lymphoid cells were conducted in accordance with Vacca, J. P. et al., Proc. Natl. Acad. Set USA 1994, 91: 4096. […] For example, the compounds of Examples 1 to 64 were tested in this assay and found to have IC95 values of less than about 10 micromolar.
Turning to `O=C1OC(CO)Cn2c1c1c(c(O)c2=O)C(=O)N(Cc2ccc(F)c(Cl)c2)CC1` (stereo not drawn) [Example 64, 9-(3-Chloro-4-fluorobenzyl)-7-hydroxy-3-(hydroxymethyl)-3,4,10,11-tetrahydro[1,4]oxazino[3,4-a]-2,6-naphthyridine-1,6,8(9H)trione], the IC95 is below 10 µM.
The result for `CC1CCCN(CCO)C(=O)c2c3c(c(O)c(=O)n21)C(=O)N(Cc1ccc(F)c(Cl)c1)CC3` (stereo not drawn) [Example 30, 11-(3-Chloro-4-fluorobenzyl)-9-hydroxy-2-(2-hydroxyethyl)-6-methyl-3,4,5,6,12,13-hexahydro-2H[1,4]diazocino[2,1-a]-2,6-naphthyridine-1,8,10(11H)-trione] reads below 10 µM.
The value for `CN1CCCn2c(c3c(c(O)c2=O)C(=O)N(Cc2ccc(F)c(Cl)c2)CC3)C1=O` [Example 3, 10-(3-Chloro-4-fluorobenzyl)-8-hydroxy-2-methyl-2,3,4,5,11,12-hexahydro[1,4]diazepino[2,1-a]-2,6-naphthyridine-1,7,9(10H)-trione] was below 10 µM; that for `C=C1CCCN(C)C(=O)c2c3c(c(O)c(=O)n21)C(=O)N(Cc1ccc(F)c(Cl)c1)CC3` [Example 50, 11-(3-chloro-4-fluorobenzyl)-9-hydroxy-2-methyl-6-methylene-3,4,5,6,12,13-hexahydro-2H-[1,4]diazocino[2,1-a]2,6-naphthyridine-1,8,10(11H)trione] was below 10 µM; that for `COCCN1CCCCn2c(c3c(c(O)c2=O)C(=O)N(Cc2ccc(F)c(Cl)c2)CC3)C1=O` [Example 22, 11-(3-Chloro-4-fluorobenzyl)-9-hydroxy-2-[2-(methoxy)ethyl]-3,4,5,6,12,13-hexahydro-2H[1,4]diazocino[2,1-a]-2,6-naphthyridine-1,8,10(11H)-trione] was below 10 µM.
As for `CC(=O)OCCCCN1C(=O)C(C)(C)n2c1c1c(c(O)c2=O)C(=O)N(Cc2ccc(F)c(Cl)c2)CC1` [Example 59, 8-(3-Chloro-4-fluorobenzyl)-6-hydroxy-1-(4-acetyloxybutyl)-3,3-dimethyl-1,8,9,10-tetrahydroimidazo[2,1-a]-2,6-naphthyridine-2,5,7(3H)-trione], the IC95 was below 10 µM.
The value for `CN(C)C(=O)CN1C(=O)C(C)(C)n2c1c1c(c(O)c2=O)C(=O)N(Cc2ccc(F)c(Cl)c2)CC1` [Example 51, 2-[8-(3-Chloro-4-fluorobenzyl)-6-hydroxy-3,3-dimethyl-2,5,7-trioxo-2,3,7,8,9,10-hexahydroimidazo[2,1-a]-2,6-naphthyridin-1(5H)-yl]-N,N-dimethylacetamide] was below 10 µM; that for `CC1(C)C(=O)N(CCCCO)c2c3c(c(O)c(=O)n21)C(=O)N(Cc1ccc(F)c(Cl)c1)CC3` [Example 56, 8-(3-Chloro-4-fluorobenzyl)-6-hydroxy-1-(4-hydroxybutyl)-3,3-dimethyl-1,8,9,10-tetrahydroimidazo[2,1-a]-2,6-naphthyridine-2,5,7(3H)-trione] was below 10 µM; that for `CC(=O)OCCCN1C(=O)C(C)(C)n2c1c1c(c(O)c2=O)C(=O)N(Cc2ccc(F)c(Cl)c2)CC1` [Example 58, 8-(3-Chloro-4-fluorobenzyl)-6-hydroxy-1-(3-acetyloxypropyl)-3,3-dimethyl-1,8,9,10-tetrahydroimidazo[2,1-a]-2,6-naphthyridine-2,5,7(3H)-trione] was below 10 µM.
The value for `O=C(O)CN1CCCCn2c(c3c(c(O)c2=O)C(=O)N(Cc2ccc(F)c(Cl)c2)CC3)C1=O` [Example 12, [11-(3-Chloro-4-fluorobenzyl)-9-hydroxy-1,8,10-trioxo-1,3,4,5,6,8,10,11,12,13-deca-hydro-2H-[1,4]diazocino[2,1-a]-2,6-naphthyridin-2-yl]acetic acid] was below 10 µM; that for `CC1CCCN(CCn2ccnc2)C(=O)c2c3c(c(O)c(=O)n21)C(=O)N(Cc1ccc(F)c(Cl)c1)CC3` (stereo not drawn) [Example 36, 11-(3-Chloro-4-fluorobenzyl)-9-hydroxy-2-[2-(1H-imidazol-1-yl)ethyl]-6-methyl-3,4,5,6,12,13-hexahydro-2H[1,4]diazocino[2,1-a]-2,6-naphthyridine-1,8,10(11H)-trione] was below 10 µM; that for `O=C1NCCCn2c1c1c(c(O)c2=O)C(=O)N(Cc2ccc(F)c(Cl)c2)CC1` [Example 4, 10-(3-Chloro-4-fluorobenzyl)-8-hydroxy-2,3,4,5,11,12-hexahydro[1,4]diazepino[2,1-a]-2,6-naphthyridine-1,7,9(10H)-trione] was below 10 µM.
The value for `CC1CCCN(CCn2cccn2)C(=O)c2c3c(c(O)c(=O)n21)C(=O)N(Cc1ccc(F)c(Cl)c1)CC3` (stereo not drawn) [Example 35, 11-(3-Chloro-4-fluorobenzyl)-9-hydroxy-2-[2-(1H-pyrazol-1-yl)ethyl]-6-methyl-3,4,5,6,12,13-hexahydro-2H[1,4]diazocino[2,1-a]-2,6-naphthyridine-1,8,10(11H)-trione] was below 10 µM; that for `CN1CC(O)CCn2c(c3c(c(O)c2=O)C(=O)N(Cc2ccc(F)c(Cl)c2)CC3)C1=O` (single isomer, unassigned) [Example 23, 11-(3-Chloro-4-fluorobenzyl)-4,9-dihydroxy-2-methyl-3,4,5,6,12,13-hexahydro-2H[1,4]diazocino[2,1-a]-2,6-naphthyridine-1,8,10(11H)-trione] was below 10 µM; that for `CN1CCCCn2c(c3c(c(O)c2=O)C(=O)N(Cc2ccc(F)cc2)CC3)C1=O` [Example 2, 11-(4-Fluorobenzyl)-9-hydroxy-2-methyl-3,4,5,6,12,13-hexahydro-2H[1,4]diazocino[2,1-a]-2,6-naphthyridine-1,8,10(11H)-trione] was below 10 µM.
As to `CC(=O)OCC1Cn2c(c3c(c(O)c2=O)C(=O)N(Cc2ccc(F)c(Cl)c2)CC3)C(=O)O1` (stereo not drawn) [Example 63, 9-(3-Chloro-4-fluorobenzyl)-7-hydroxy-3-(acetyloxymethyl)-3,4,10,11-tetrahydro[1,4]oxazino[3,4-a]-2,6-naphthyridine-1,6,8(9H)-trione], the concentration for an effect of 95% (IC95) is below 10 µM.
`CC(=O)OCCN1CCCCn2c(c3c(c(O)c2=O)C(=O)N(Cc2ccc(F)c(Cl)c2)CC3)C1=O` [Example 10, 11-(3-Chloro-4-fluorobenzyl)-9-hydroxy-2-[2-(acetyloxy)ethyl]-3,4,5,6,12,13-hexahydro-2H[1,4]diazocino[2,1-a]-2,6-naphthyridine-1,8,10(11H)-trione]: the IC95 is below 10 µM.
The value for `CC1(CCO)C(=O)N(CCO)c2c3c(c(O)c(=O)n21)C(=O)N(Cc1ccc(F)c(Cl)c1)CC3` (stereo not drawn) [Example 60, 8-(3-Chloro-4-fluorobenzyl)-6-hydroxy-1,3-bis(2-hydroxyethyl)-3-methyl-1,8,9,10-tetrahydroimidazo[2,1-a]-2,6-naphthyridine-2,5,7(3H)-trione] was below 10 µM.
Regarding `CN1CC(N2CCOCC2)CCn2c(c3c(c(O)c2=O)C(=O)N(Cc2ccc(F)c(Cl)c2)CC3)C1=O` (stereo not drawn) [Example 27, 11-(3-Chloro-4-fluorobenzyl)-9-hydroxy-2-methyl-4-morpholin-4-yl-3,4,5,6,12,13-hexahydro-2H[1,4]diazocino[2,1-a]-2,6-naphthyridine-1,8,10(11H)-trione], the IC95 is below 10 µM.
The result for `CN1CC(O)C(C)(C)Cn2c(c3c(c(O)c2=O)C(=O)N(Cc2ccc(F)c(Cl)c2)CC3)C1=O` (racemic) [Example 40, (4R/S)-11-(3-Chloro-4-fluorobenzyl)-4,9-dihydroxy-2,5,5-trimethyl-3,4,5,6,12,13-hexahydro-2H[1,4]diazocino[2,1-a]-2,6-naphthyridine-1,8,10(11H)-trione] reads below 10 µM; that for `C[C@H]1C[C@H](O)CN(C)C(=O)c2c3c(c(O)c(=O)n21)C(=O)N(Cc1ccc(F)c(Cl)c1)CC3` [Example 44, (4S,6S)-11-(3-Chloro-4-fluorobenzyl)-4,9-dihydroxy-2,6-dimethyl-3,4,5,6,12,13-hexahydro-2H[1,4]diazocino[2,1-a]-2,6-naphthyridine-1,8,10(11H)-trione], below 10 µM.
In turn, `CN1C(=O)C(C)(C)n2c1c1c(c(O)c2=O)C(=O)N(Cc2ccc(F)c(Cl)c2)CC1` [Example 9, 8-(3-Chloro-4-fluorobenzyl)-6-hydroxy-1,3,3-trimethyl-1,8,9,10-tetrahydroimidazo[2,1a]-2,6-naphthyridine-2,5,7(3H)-trione] had a 95% effect concentration (IC95) below 10 µM.
The result for `CN1CCC(O)Cn2c(c3c(c(O)c2=O)C(=O)N(Cc2ccc(F)c(Cl)c2)CC3)C1=O` (stereo not drawn) [Example 37, 11(3-Chloro-4-fluorobenzyl)-5,9-dihydroxy-2-methyl-3,4,5,6,12,13-hexahydro-2H[1,4]diazocino[2,1-a]-2,6-naphthyridine-1,8,10(11H)-trione] reads below 10 µM; that for `C[C@H]1C[C@@H](O)CN(C)C(=O)c2c3c(c(O)c(=O)n21)C(=O)N(Cc1ccc(F)c(Cl)c1)CC3` [Example 43, (4R,6S)-11-(3-Ch1oro-4-fluorobenzyl)-4,9-dihydroxy-2,6-dimethyl-3,4,5,6,12,13-hexahydro-2H[1,4]diazocino[2,1-a]-2,6-naphthyridine-1,8,10(11H)-trione], below 10 µM.
`CN1CCC[C@H](CO)n2c(c3c(c(O)c2=O)C(=O)N(Cc2ccc(F)c(Cl)c2)CC3)C1=O` [Example 47, (6R)-11-(3-Chloro-4-fluorobenzyl)-9-hydroxy-6-(hydroxymethyl)-2-methyl-3,4,5,6,12,13-hexahydro-2H-[1,4]diazocino[2,1-a]-2,6-naphthyridine-1,8,10(11H)-trione] came in with an IC95 below 10 µM.
The value for `CS(=O)(=O)NCCN1CCCCn2c(c3c(c(O)c2=O)C(=O)N(Cc2ccc(F)c(Cl)c2)CC3)C1=O` [Example 21, 11-(3-Chloro-4-fluorobenzyl)-9-hydroxy-2-[2-(methamesulfonylamino)ethyl]-3,4,5,6,12,13-hexahydro-2H[1,4]diazocino[2,1-a]-2,6-naphthyridine-1,8,10(11H)-trione] was below 10 µM; that for `CNC(=O)CN1CCCCn2c(c3c(c(O)c2=O)C(=O)N(Cc2ccc(F)c(Cl)c2)CC3)C1=O` [Example 14, 2-[11-(3-Chloro-4-fluorobenzyl)-9-hydroxy-1,8,10-trioxo-1,3,4,5,6,8,10,11,12,13-deca-hydro-2H-[1,4]diazocino[2,1-a]-2,6-naphthyridin-2-yl]-N-methylacetamide] was below 10 µM.
